Results reported in US7700108B2, “Tumor antigen protein and use thereof” (Dainippon Sumitomo Pharma Co., Ltd., priority 2002, dated 2010).
Where no end group is shown, it is not given here.

System: TcOS2000cl-303 (CTL) with 293-EBNA-B55 cells (HLA-B* 5502)
Assay: LDH release assay: reactivity of CTL TcOS2000cl-303 to peptide-pulsed 293-EBNA-B55 cells
Assay type: cell-based, human
Settings: 293-EBNA-B55 cells pulsed for 1 hour with peptide, co-cultured with TcOS2000cl-303; FIG. 5
Experimental: The first screening involved the following procedures. A pool of about 100 cDNA clones ([…]) was introduced into 293-EBNA-B55 cells having been plated into a 96-well microplate at 8×10^4 cells/well by lipofection method (Lipofectamine 2000, Invitrogen). Pools of respective cDNA clones used for introduction were stored separately. Twenty-four-hour later, TcOS2000cl-303 cells (8×10^4) were added and cultivation continued for another 24 hours, when the cultured supernatant was recovered. The reactivity of CTL was evaluated by determining LDH released in the supernatant by cytotoxic effects using LDH Cytotoxicity Detection Kit (TAKARA BIO). […] As a result, the reactivity was detected in 20 wells. […] As a result, the reactivity was detected in 4 wells.
Antigen peptide regions that bind to HLA-B* 5502 was identified from various peptides synthesized on the basis of the amino acid sequence (SEQ ID NO: 2) of tumor antigen protein PBF using as an index the reactivity of TcOS2000cl-303. 293-EBNA-B55A cells (8×10^4) were pulsed for 1 hour with a peptide having an amino acid sequence (Cys Thr Ala Cys Arg Trp Lys Ala Cys Gln Arg, SEQ ID NO: 46) corresponding to the amino acid sequence at position […] of SEQ ID NO: 2, co-cultured with TcOS2000cl-303 cells (4×10^4) and the reactivity was assessed by LDH release assay in the same manner as that described in Example 2. […]

## CTACRWKACQR (cysteine pairing not given here) [SEQ ID NO: 46]
  reactivity of TcOS2000cl-303 (LDH release): reacted to peptide-pulsed 293-EBNA-B55 cells
